Patent US20060275800A1, “Process for characterization of the transactivation and transrepression activity of glucocorticoid receptor ligands in primary immune cells” (priority 2005, published 2006)

Tests used:
CD163 [1] = assay: In vitro mRNA expression of CD163 (transactivation parameter) in unstimulated human PBMC cultures; type: cell-based; details: for induction of CD163 (in words): single substance; for Transactivation vs. Prednisolone CD163: mRNA, PBMC cultures, GR-ligand/prednisolone quotient
Excerpt: (§1) Regarding the definition of suitable parameters, the regulation, mediated by standard glucocorticoids and selective GR ligands, of more than 50 genes in primary human immune cells was examined in a broad screening approach. Selected genes were further characterized in vitro and in vivo in kinetic experiments. […] Decisive criteria for the parameter selection were 1) the consistent reflection of transactivation or transrepression properties of GR ligands, 2) the detection of the regulation in non-stimulated immune cells, and 3) the quick reaction of the gene expression in in vitro assays (the 4-hour time period was used for the screening), and the good and enduring detectability after in vivo application of GR ligands. These properties make it likely that a direct regulation of the gene expression by the GR ligands will take place and that the parameters will be usable in in vivo studies (e.g., as biomarkers).
(§2) To have a comparison with a standard GK, the GR-ligand-influenced gene expressions for these parameters were normalized to the gene expression after treatment with the standard GK, prednisolone. […] It is clear to one skilled in the art that the normalization could also in principle be related to any other glucocorticoid.
(§3) For gene suppression, the “prednisolone/GR ligand” quotient was derived for purposes of normalization, i.e., a lower value (<1) indicates a relatively weaker suppression by the GR ligands (higher values in the residual gene expression).
(§4) For the mRNA detection, the total RNA was isolated from the respective samples (human PBMC or human whole blood or spleen cells from mice), transcribed in the cDNA and amplified and detected below by means of Real-time TaqMan-PCR (Applied Biosystems). A relative quantification in comparison to the expression of the “house-keeping” gene HPRT was carried out. In each case, the ratio of the result for the GR ligands to the result of the vehicle control is plotted.

FKBP51 [2] = assay: In vitro mRNA expression of FKBP51 (transactivation parameter) in unstimulated human PBMC cultures; type: cell-based; details: for Transactivation vs. Prednisolone FKBP51: mRNA, PBMC cultures, GR-ligand/prednisolone quotient
Excerpt: as §1, §2, §3, §4

IL-1β = assay: In vitro mRNA expression of IL-1β (transrepression parameter) in unstimulated human PBMC cultures; type: cell-based; details: for suppression of the mRNA expression of IL-1β (in words): human PBMC cultures, single substance; for Transrepression vs. Prednisolone IL-1β: mRNA, PBMC cultures, prednisolone/GR ligand quotient
Excerpt: as §1, §2, §3, §4

TNF-α = assay: In vitro mRNA expression of TNF-α (transrepression parameter) in unstimulated human PBMC cultures; type: cell-based; details: for suppression of the mRNA expression of TNF-α (in words): human PBMC cultures, single substance; for Transrepression vs. Prednisolone TNF-α: mRNA, PBMC cultures, prednisolone/GR ligand quotient
Excerpt: as §1, §2, §3, §4

MMTV promoter = MMTV promoter luciferase transactivation assay in HeLa cells; type: cell-based, human
Excerpt: The promoter of the mouse mammary tumor virus (MMTV) contains specific binding sites for the activated GR (so-called GREs). This promoter was cloned before a reporter gene (luciferase), and the construct was integrated in a stable manner in the genome of the human cell line HeLa (cervix carcinoma cells). By adding test and reference substances, the MMTV promoter is activated, and the luciferase, whose activity can be detected by means of photometric measurement, is expressed.
(§5) The activities of SEGRA substances in the respective transactivation and transrepression systems are determined in comparison to the activities of the reference substance dexamethasone.

[3] = system: tyrosinaminotransferase (TAT); assay: Induction of tyrosinaminotransferase (TAT) activity in rat hepatoma cells (H4IIE3); type: cell-based; details: for effectiveness, induction of the TAT activity, % of the maximum dexamethasone effect / EC50: agonism, n=2; for EC50: read-out: power, induction of the TAT activity
Procedure: In a second transactivation system, the induction of the tyrosinaminotransferase (TAT) by glucocorticoids is determined. In the promoter of the gene for the TAT, GREs are also located, so that this gene is expressed in an enhanced form by binding of the ligand-activated GR. To this end, rat hepatoma cells (H4IIE3) are treated for 24 hours with test and reference substances, and then the TAT activity is determined by photometry. For the two assays, both the detection of agonistic actions of the SEGRA substances in the transactivation and the detection of antagonistic actions in the induction of the parameters by other GR ligands are possible.
as §5

[4] = system: transactivation parameters; assay: Gene induction in human PBMC (transactivation profile); type: cell-based; details: mRNA
Procedure: as §4
Below, by way of example, the application of the characterization of the transactivation and transrepression activity of selective GR ligands by means of gene expression analysis in primary immune cells is shown comparatively based on two SEGRA substances, the agonist in the transactivation, compound 1, and the antagonist in the transactivation, compound 2. The molecular mechanism of these substances had been previously characterized in the usual assays (see 5.2 and 5.3). The gene expression analysis was performed by means of quantitative Real-Time-TaqMan-PCR. The ratios (mean value±standard deviation) of the results for the GR ligands to the results for the vehicle control are shown.
In contrast to this, the different transactivation profile of the SEGRA substances is reflected in differing degrees of gene induction.

CD163 [5] = assay: Time-dependent CD163 mRNA expression in human whole-blood cultures; type: cell-based
Procedure: as §4
(§6) For the parameters CD163 and FKBP51, in addition, the time-dependent influence of CR ligands on the mRNA expression in human whole-blood cultures was examined.

FKBP51 [6] = assay: Time-dependent FKBP51 mRNA expression in human whole-blood cultures; type: cell-based
Procedure: as §4, §6

inflammatory cytokines = assay: In vivo expression of inflammatory cytokines in spleen cells of treated mice; details: after 24 hours, vs vehicle control
Procedure: as §4
(§7) The in vivo regulation of the expression of selected genes was characterized in the spleen cells of SEGRA-treated mice after 24 hours.

FKBP51 [7] = assay: In vivo expression of FKBP51 in spleen cells of treated mice; details: after 24 hours
Procedure: as §4, §7

CD163 [8] = assay: In vivo expression of CD163 in spleen cells of treated mice; details: after 24 hours
Procedure: as §4, §7

GILZ = assay: In vivo expression of GILZ in spleen cells of treated mice; details: after 24 hours
Procedure: as §4, §7

glutamine synthetase = assay: In vivo expression of glutamine synthetase in spleen cells of treated mice; details: after 24 hours
Procedure: as §4, §7

[9] = system: transrepression (TNF-α and IL-1β) and transactivation (CD163 and FKBP51); assay: Transrepression/transactivation ratio (dissociation factor) in human PBMC cultures; type: cell-based; details: PBMC cultures, 1, 2, 4, 12 and 24 hours
Excerpt: As parameters that could [make] reference to the mechanism of the transrepression, TNF-α and IL-1β were selected. CD163 and FKBP51 are used to detect the transactivation activity.
Below, a ratio between the transrepression and transactivation parameters that are normalized to prednisolone was derived according to formula 2: [formula]
The factors for the transactivation and transrepression activity were averaged geometrically and put into a ratio with one another. […] The higher the ratio, the more dissociated the GR ligand is in comparison to prednisolone (ratio=1). [drawing]
Figure: Ratios for Visualization of the In Vitro Dissociation of the GR Ligands in Comparison to Prednisolone in PBMC Cultures (n—3) after 1, 2, 4, 12 and 24 Hours.
The ratios were calculated after the normalization of the gene expression values to prednisolone from the quotient of the geometric means of the parameters for transrepression (TNF-α and IL-1β) and for transactivation (CD163 and FKBP51). Mean values±SD.

[10] = human PBMC cultures, antagonism

SMILES	induction of CD163 (in words) (CD163 [1]; human PBMC cultures)	suppression of the mRNA expression of IL-1β (in words) (IL-1β)	suppression of the mRNA expression of TNF-α (in words) (TNF-α)	antagonistic effect in the MMTV promoter assay (in words) (MMTV promoter)	effectiveness, induction of the TAT activity, % of the maximum dexamethasone effect ([3]; rat hepatoma cells) [%]	EC50 ([3]; rat hepatoma cells) [µM]	gene induction [4]	time-dependent influence on CD163 mRNA expression (CD163 [5])	time-dependent influence on FKBP51 mRNA expression (FKBP51 [6])	expression of FKBP51 (FKBP51 [7])	expression of CD163 (CD163 [8])	expression of GILZ (GILZ)	expression of glutamine synthetase (glutamine synthetase)	Transactivation vs. Prednisolone CD163 (CD163 [1]; 1 hour)	Transactivation vs. Prednisolone CD163 (CD163 [1]; 2 hours)	Transactivation vs. Prednisolone CD163 (CD163 [1]; 4 hours)	Transactivation vs. Prednisolone CD163 (CD163 [1]; 12 hours)	Transactivation vs. Prednisolone CD163 (CD163 [1]; 24 hours)	Transactivation vs. Prednisolone FKBP51 (FKBP51 [2]; 1 hour)	Transactivation vs. Prednisolone FKBP51 (FKBP51 [2]; 2 hours)	further results
Cc1noc(=O)c2ccc(NC(=O)C(O)(CC(C)(C)c3cc(F)ccc3C(F)(F)F)C(F)(F)F)cc12 (centres unmarked) [compound 2]	not	suppression	suppression	clear antagonist	43.5±10.6	0.067 ± 0.01	lower gene induction or no gene induction	did not lead to the increase of the gene expression	did not lead to the increase of the gene expression	reduces the expression	reduces the expression	reduces the expression	reduces the expression	–	–	–	–	–	–	–	CD163 expression in all batches (CD163 [1]; human PBMC cultures, alone and with prednisolone): reduced; induction of CD163 on simultaneous administration with prednisolone, in comparison to prednisolone alone (CD163 [1]; [10]): clearly lower; induction of FKBP51 on simultaneous administration with prednisolone, in comparison to prednisolone alone (FKBP51 [2]; [10]): clearly lower; IC50 (MMTV promoter; Homo sapiens, antagonism, n=3, read-out: power, antagonism of the MMTV promoter activity induced by dexamethasone): 0.085 ± 0.012 µM; effectiveness, antagonism of dexamethasone-induced MMTV promoter activity, % of the maximum effect of the GR antagonist RU 486 (MMTV promoter; antagonism, n=3): 119±3.6%; Emax ([3]; Rattus norvegicus, at a concentration of 1 μmol, read-out: antagonism of the dexamethasone-induced TAT activity, % of the maximum effect of RU 486): 35%; behaviour in the TAT promoter (in words) ([3]; rat hepatoma cells): partial agonist; inhibition of the inflammatory cytokines (transrepression) (inflammatory cytokines): less pronounced
Cc1noc(=O)c2ccc(NC(=O)C(O)(CC(C)(C)c3cccc4c3OCO4)C(F)(F)F)cc12 (centres unmarked) [compound 1]	–	–	–	antagonistic effect neither	86±12.7	0.0057 ± 0.0006	clearly induces	induced the expression of these genes permanently	induced the expression of these genes permanently	clear induction	clear induction	clear induction	clear induction	–	–	–	–	–	–	–	EC50 (MMTV promoter; Homo sapiens, agonism, n=2, read-out: power, induction of the activity of the MMTV promoter): 0.01 ± 0.0014 µM; effectiveness, induction of the MMTV promoter, % of the maximum dexamethasone effect (MMTV promoter; agonism, n=2): 73±2.8%
C[C@]12C=CC(=O)C=C1CC[C@@H]1[C@@H]2[C@@H](O)C[C@@]2(C)[C@H]1CC[C@]2(O)C(=O)CO [Prednisolone, prednisolone]	induced	suppression	suppression	–	–	–	–	induced the expression of these genes permanently	induced the expression of these genes permanently	–	–	–	–	1.00	1.00	1.00	1.00	1.00	1.00	1.00	induction of FKBP51 (in words) (FKBP51 [2]; human PBMC cultures, single substance): induced; Transactivation vs. Prednisolone FKBP51 (FKBP51 [2]; 4 hours): 1.00; Transactivation vs. Prednisolone FKBP51 (FKBP51 [2]; 12 hours): 1.00; Transactivation vs. Prednisolone FKBP51 (FKBP51 [2]; 24 hours): 1.00; Transrepression vs. Prednisolone IL-1β (IL-1β; 1 hour): 1.00; Transrepression vs. Prednisolone IL-1β (IL-1β; 2 hours): 1.00; Transrepression vs. Prednisolone IL-1β (IL-1β; 4 hours): 1.00; Transrepression vs. Prednisolone IL-1β (IL-1β; 12 hours): 1.00; Transrepression vs. Prednisolone IL-1β (IL-1β; 24 hours): 1.00; Transrepression vs. Prednisolone TNF-α (TNF-α; 1 hour): 1.00; Transrepression vs. Prednisolone TNF-α (TNF-α; 2 hours): 1.00; Transrepression vs. Prednisolone TNF-α (TNF-α; 4 hours): 1.00; Transrepression vs. Prednisolone TNF-α (TNF-α; 12 hours): 1.00; Transrepression vs. Prednisolone TNF-α (TNF-α; 24 hours): 1.00; dissociation factor (transrepression/transactivation ratio vs prednisolone) [9]: largely comparable
C[C@@H]1C[C@H]2[C@@H]3CCC4=CC(=O)C=C[C@]4(C)[C@@]3(F)[C@@H](O)C[C@]2(C)[C@@]1(O)C(=O)CO [Dexamethasone, dexamethasone]	–	–	–	–	–	–	–	–	–	–	–	–	–	1.02	1.89	1.34	1.13	1.04	0.89	1.13	Transactivation vs. Prednisolone FKBP51 (FKBP51 [2]; 4 hours): 1.08; Transactivation vs. Prednisolone FKBP51 (FKBP51 [2]; 12 hours): 1.07; Transactivation vs. Prednisolone FKBP51 (FKBP51 [2]; 24 hours): 1.05; Transrepression vs. Prednisolone IL-1β (IL-1β; 1 hour): 0.61; Transrepression vs. Prednisolone IL-1β (IL-1β; 2 hours): 0.69; Transrepression vs. Prednisolone IL-1β (IL-1β; 4 hours): 1.27; Transrepression vs. Prednisolone IL-1β (IL-1β; 12 hours): 0.96; Transrepression vs. Prednisolone IL-1β (IL-1β; 24 hours): 1.16; Transrepression vs. Prednisolone TNF-α (TNF-α; 1 hour): 0.80; Transrepression vs. Prednisolone TNF-α (TNF-α; 2 hours): 0.85; Transrepression vs. Prednisolone TNF-α (TNF-α; 4 hours): 1.01; Transrepression vs. Prednisolone TNF-α (TNF-α; 12 hours): 1.00; Transrepression vs. Prednisolone TNF-α (TNF-α; 24 hours): 0.97
